≈ marks a conversion by molar mass, not a printed value. Calls of active or inactive are those of the source. No cut-off for these calls is given here. Peptide text beside a SMILES is read from it.
Experiments:
Neutrophil [1] = test: Immunomodulatory activity in neutrophils (unknown origin) assessed as inhibition of LPS-induced MCP-1 level at 5 to 20 ug/ml by ELISA; format: functional, cell-based; settings: dose 5-20 µg/ml
Mus musculus [2] = test: Immunomodulatory activity in Kunming mouse infected with vancomycin-resistant Staphylococcus aureus assessed as decreased in IL-6 level in peritoneal lavage at 10 mg/kg, ip administered 24 hrs before infection by ELISA; format: functional, organism-based
Staphylococcus aureus [3] = test: Antibacterial activity against vancomycin-resistant Staphylococcus aureus assessed as bactericidal activity incubated at 0 to 90 degree C for 1 hr; format: functional, organism-based
Staphylococcus aureus [4] = test: Antimicrobial activity against methicillin resistant Staphylococcus aureus IS 08032712, incubated for 16 to 18 hrs by fluorescence microplate reader analysis; format: functional; settings: time 16-18 hrs
Enterococcus faecalis = test: Antimicrobial activity against Enterococcus faecalis IS 981 incubated for 16 to 18 hrs by fluorescence microplate reader analysis; format: functional; settings: time 16-18 hrs
[5] = Stability of compound in 80% human serum assessed as intact compound remained measured upto 8 hrs by HPLC analysis; format: cell-free; settings: time hrs <=8
Mus musculus [6] = test: Immunomodulatory activity in Kunming mouse infected with vancomycin-resistant Staphylococcus aureus assessed as increased in CXCL1/KC level in peritoneal lavage at 10 mg/kg, ip administered 24 hrs before infection by ELISA; format: functional, organism-based
Neutrophil [7] = test: Induction of ROS production in neutrophil (unknown origin) by fluorescence assay; format: functional, cell-based; settings: dose 10-40 µg/ml
Escherichia coli = test: Antimicrobial activity against Escherichia coli ATCC 25922 incubated for 16 to 18 hrs by fluorescence microplate reader analysis; format: functional; settings: time 16-18 hrs
Mus musculus [8] = test: Immunomodulatory activity in mouse assessed as increase […] of MCP-1 in peritoneal cavity at 10 mg/kg, ip measured after 5 to 24 hrs by ELISA; format: functional, organism-based; settings: time 5-24 hrs
Staphylococcus aureus [9] = test: Antibacterial activity against vancomycin-resistant Staphylococcus aureus assessed as bacterial growth inhibition in presence of 80% human serum incubated upto 8 hrs; format: functional; settings: time hrs <=8
Macrophage [10] = test: Immunomodulatory activity in mouse peritoneal macrophage assessed as inhibition of LPS-induced IL-6 level measured after 6 hrs by qRT-PCR analysis; format: functional, tissue-based; settings: dose 5-20 µg/ml
Klebsiella pneumoniae [11] = test: Antimicrobial activity against Klebsiella pneumoniae IS 1400 incubated for 16 to 18 hrs by fluorescence microplate reader analysis; format: functional; settings: time 16-18 hrs
Neutrophil [12] = test: Immunomodulatory activity in neutrophils (unknown origin) assessed as increase in MCP-1 level at 20 ug/ml measured after 12 hrs by ELISA; format: functional, cell-based; settings: dose 20.0 µg/ml
Klebsiella pneumoniae [13] = test: Antimicrobial activity against Klebsiella pneumoniae IS 08B343 incubated for 16 to 18 hrs by fluorescence microplate reader analysis; format: functional; settings: time 16-18 hrs
Staphylococcus aureus [14] = test: Antimicrobial activity against Staphylococcus aureus IS 08032706 incubated for 16 to 18 hrs by fluorescence microplate reader analysis; format: functional; settings: time 16-18 hrs
[15] = tested on: Staphylococcus epidermidis; test: Antimicrobial activity against Staphylococcus epidermidis IS 08032706 incubated for 16 to 18 hrs by fluorescence microplate reader analysis; format: functional; settings: time 16-18 hrs
Macrophage [16] = test: Inhibition of NFkappaB in mouse peritoneal macrophage assessed as LPS-induced IkappaBalpha degradation at 5 to 20 ug/ml pretreated for 1 hr followed by LPS stimulation measured after 30 mins by Western blot analysis; format: tissue-based; settings: dose 20.0 µg/ml, time 1.5 hrs
Mus musculus [17] = test: Immunomodulatory activity in Kunming mouse infected with vancomycin-resistant Staphylococcus aureus assessed as effect number of inflammatory macrophages in peritoneal cavity at 10 mg/kg, ip measured upto 24 hrs by flow cytometry; format: functional, organism-based; settings: time hrs <=24
Mus musculus [18] = test: Immunomodulatory activity in Kunming mouse infected with vancomycin-resistant Staphylococcus aureus assessed as decreased in IL-1beta level in peritoneal lavage at 10 mg/kg, ip administered 4 hrs after infection by ELISA; format: functional, organism-based
Neutrophil [19] = test: Immunomodulatory activity in neutrophils (unknown origin) assessed as effect on TNF-alpha level at 20 ug/ml measured after 12 hrs by ELISA; format: functional, cell-based; settings: dose 20.0 µg/ml
Staphylococcus aureus [20] = test: In vivo antibacterial activity against vancomycin resistant Staphylococcus aureus infected in macrophage/monocyte deficient kunming mouse assessed as bacterial load in peritoneal lavage at 10 mg/kg, ip administered 24 hrs before infection; format: functional, organism-based
[21] = Immunomodulatory activity in mouse peritoneal macrophage assessed as inhibition of LPS-induced IL-6 level at 5 ug/ml measured after 6 hrs by qRT-PCR analysis relative to control; format: functional
Mus musculus [22] = test: Immunomodulatory activity in Kunming mouse infected with vancomycin-resistant Staphylococcus aureus assessed as decreased in TNF-alpha level in peritoneal lavage at 10 mg/kg, ip administered 4 hrs after infection by ELISA; format: functional, organism-based
Candida albicans [23] = test: Antibiofilm activity against Candida albicans assessed as biofilm eradication at BIC-5 by XTT and crystal violet staining assay relative to control; format: functional
[24] = Toxicity in Kunming mouse assessed as effect on IL-6 levels at 10 mg/kg, ip measured after 5 hrs by ELISA; format: organism-based; settings: in vivo
Staphylococcus aureus [25] = test: Antimicrobial activity against vancomycin resistant Staphylococcus aureus IS 08032810, incubated for 16 to 18 hrs by fluorescence microplate reader analysis; format: functional; settings: time 16-18 hrs
Staphylococcus aureus [26] = test: In vivo antibacterial activity against vancomycin resistant Staphylococcus aureus infected in neutropenic kunming mouse model assessed as survival rate at 10 mg/kg, ip administered 24 hrs before infection; format: functional, organism-based
Pseudomonas aeruginosa = test: Antimicrobial activity against Pseudomonas aeruginosa ATCC 27853 incubated for 16 to 18 hrs by fluorescence microplate reader analysis; format: functional; settings: time 16-18 hrs
Candida albicans [27] = test: Antimicrobial activity against Candida albicans IS 08022821 incubated for 16 to 18 hrs by fluorescence microplate reader analysis; format: functional; settings: time 16-18 hrs
Mus musculus [28] = test: Immunomodulatory activity in Kunming mouse infected with vancomycin-resistant Staphylococcus aureus assessed as decreased in TNF-alpha level in peritoneal lavage at 10 mg/kg, ip administered 24 hrs before infection by ELISA; format: functional, organism-based
[29] = Immunomodulatory activity in mouse peritoneal macrophage assessed as increase in IL-10 mRNA level at 20 ug/ml measured after 6 hrs by qRT-PCR analysis relative to control; format: functional; settings: dose 20 µg/ml
[30] = Toxicity in Kunming mouse assessed as effect on CXCL1/KC levels at 10 mg/kg, ip measured after 5 hrs by ELISA; format: organism-based; settings: in vivo
Macrophage [31] = test: Immunomodulatory activity in mouse peritoneal macrophage assessed as inhibition of LPS-induced IL-6 level measured after 24 hrs by ELISA; format: functional; settings: dose 5-20 µg/ml
Staphylococcus aureus [32] = test: Antibacterial activity against vancomycin-resistant Staphylococcus aureus assessed as bacterial growth inhibition in presence of 100 mmol NaCl; format: functional
Candida albicans [33] = test: Antimicrobial activity against Candida albicans IS 08022710 incubated for 16 to 18 hrs by fluorescence microplate reader analysis; format: functional; settings: time 16-18 hrs
Neutrophil [34] = test: Immunomodulatory activity in neutrophils (unknown origin) assessed as effect on IL-6 level at 20 ug/ml measured after 12 hrs by ELISA; format: functional, cell-based; settings: dose 20.0 µg/ml
Enterococcus faecium = test: Antimicrobial activity against Enterococcus faecium IS 1299 incubated for 16 to 18 hrs by fluorescence microplate reader analysis; format: functional; settings: time 16-18 hrs
Nakaseomyces glabratus = test: Antimicrobial activity against Candida glabrata IS 09050201 incubated for 16 to 18 hrs by fluorescence microplate reader analysis; format: functional; settings: time 16-18 hrs
Staphylococcus aureus [35] = test: In vivo antibacterial activity against vancomycin resistant Staphylococcus aureus infected in kunming mouse assessed as reduction in bacterial load in peritoneal lavage at 10 mg/kg, ip administered 24 hrs before infection; format: functional, organism-based

CC[C@H](C)[C@H](NC(=O)[C@@H]1CCCN1C(=O)[C@@H](NC(=O)[C@@H](NC(=O)CNC(=O)CNC(=O)[C@@H](NC(=O)[C@H](Cc1ccccc1)NC(=O)[C@@H](NC(=O)[C@H](CCCCN)NC(=O)[C@@H](NC(=O)[C@H](CCCCN)NC(=O)[C@H](CCCCN)NC(=O)[C@H](Cc1ccccc1)NC(=O)[C@@H](NC(=O)[C@H](CCCCN)NC(=O)[C@H](CCCNC(=N)N)NC(=O)[C@H](Cc1ccccc1)NC(=O)CNC(=O)[C@H](CCCCN)NC(=O)[C@H](CCCCN)NC(=O)[C@@H](NC(=O)[C@H](CCCCN)NC(=O)[C@H](CCCNC(=N)N)NC(=O)[C@H](Cc1ccccc1)NC(=O)[C@H](Cc1ccccc1)NC(=O)[C@H](CCCCN)NC(=O)[C@H](CCCCN)NC(=O)[C@H](Cc1ccccc1)NC(=O)[C@H](CCCNC(=N)N)NC(=O)[C@@H](N)CCCCN)[C@@H](C)CC)[C@@H](C)CC)[C@@H](C)O)[C@@H](C)CC)[C@@H](C)CC)[C@@H](C)O)[C@@H](C)CC)C(=O)O (H-KRFKKFFRKIKKGFRKIFKKTKIFIGGTIPI-OH)
inhibition (Neutrophil [1]): inactive | Activity (Mus musculus [2]): Active | Activity (Staphylococcus aureus [3]): Active | MIC (Staphylococcus aureus [4]): 1.17 µg/mL (≈ 0.308 µM) | MIC (Enterococcus faecalis): 1.17 µg/mL (≈ 0.308 µM) | Stability [5]: 30% | Activity (Mus musculus [6]): Active | Activity (Neutrophil [7]): Dose-dependent effect | MIC (Escherichia coli): 1.17 µg/mL (≈ 0.308 µM) | Activity (Mus musculus [8]): Active | MIC (Staphylococcus aureus [9]): 25 µg/mL | inhibition (Macrophage [10]): Dose-dependent effect | MIC (Klebsiella pneumoniae [11]): 1.17 µg/mL (≈ 0.308 µM) | Activity (Neutrophil [12]): Active | MIC (Klebsiella pneumoniae [13]): 1.17 µg/mL (≈ 0.308 µM) | MIC (Staphylococcus aureus [14]): 1.17 µg/mL (≈ 0.308 µM) | MIC [15]: 1.17 µg/mL (≈ 0.308 µM) | inhibition (Macrophage [16]): Active | Activity (Mus musculus [17]): inactive | Activity (Mus musculus [18]): Active | Activity (Neutrophil [19]): inactive | Activity (Staphylococcus aureus [20]): inactive | inhibition at 5 µg/mL [21]: 99.6% | Activity (Mus musculus [22]): Active | Activity (Candida albicans [23]): 38.69% | Activity [24]: Non-Toxic | MIC (Staphylococcus aureus [25]): 1.17 µg/mL (≈ 0.308 µM) | Activity (Staphylococcus aureus [26]): inactive | MIC (Pseudomonas aeruginosa): 1.17 µg/mL (≈ 0.308 µM) | MIC (Candida albicans [27]): 1.17 µg/mL (≈ 0.308 µM) | Activity (Mus musculus [28]): Active | fold change (FC) [29]: 8 | Activity [30]: Non-Toxic | inhibition (Macrophage [31]): Dose-dependent effect | MIC (Staphylococcus aureus [32]): < 10 µg/mL | MIC (Candida albicans [33]): 1.17 µg/mL (≈ 0.308 µM) | Activity (Neutrophil [34]): inactive | MIC (Enterococcus faecium): 1.17 µg/mL (≈ 0.308 µM) | MIC (Nakaseomyces glabratus): 1.17 µg/mL (≈ 0.308 µM) | Activity (Staphylococcus aureus [35]): Active

— ChEMBL document CHEMBL4715817, “Python Cathelicidin CATHPb1 Protects against Multidrug-Resistant Staphylococcal Infections by Antimicrobial-Immunomodulatory Duality” (J Med Chem, 2018)
